Test results: US20240316079A1, “USE OF AKR1C3-ACTIVATED COMPOUND” (OBI PHARMA, INC., priority 2021, published 2024)
Read-outs that look alike come from different tables or passages of the source.

How the values were obtained:
[1] = system: H460 subcutaneous xenograft; assay type: in vivo, mice; settings: paclitaxel 15 mg/kg IV BIW×4
Description: (§1) In vivo anti-tumor activity of 3424 was evaluated using GFP-expressing cancer cell lines in an orthotopic liver cancer model (HepG2) and a subcutaneous lung cancer model (H460) CDX models at AntiCancer, Inc (Beijing, China). Female athymic nude mice (6 weeks; BALB/c-nu, Beijing HFK Bioscience Co., Ltd., Beijing, China) were used in the studies. Each mouse was implanted with a HepG2-GFP tumor chunk (˜1 mm^3 in diameter) in the right lobe of the liver for tumor development or inoculated subcutaneously with H460-GFP tumor chunk (˜1 mm^3 in diameter). About 3-10 days later, whole mouse body scan was performed using FluorVivo Model-100 fluorescence imager (INDEC Biosystems, Inc., Los Altos, CA). Mice with similar fluorescent areas were selected and randomly grouped. Both cell lines expressed high level of AKR1C3. Prodrug 3424 was dosed intravenously (IV) at 1.25, 2.5 mg/kg or 5 mg/kg Q7D×2 for the HepG2 orthotopic model or at 0.625, 1.25 or 2.5 mg/kg for the H460 xenograft model with a regimen of Q7D×2, 1 week off, then Q7D×2 again. Sorafenib was used as the positive control in the HepG2 model and was dosed orally at 30 mg/kg with a regimen of QD×5×7 cycles. Taxol was used as the positive control in the H460 model and was administered at 15 mg/kg IV with a regimen of BIW×4. During the experiments, mice were observed daily and body weight was measured twice a week. Tumor burden was monitored twice a week either by caliper measurement (H460) or FluorVivo fluorescence imager (H460-GFP and HepG2-GFP).

[2] = system: HepG2 orthotopic xenograft; assay type: in vivo, mice; settings: sorafenib 30 mg/kg orally, QD×5×7 cycles; no statistical significance
Description: as §1

H460 cells [3] = experiment: Comet assay for DNA cross-linking; assay type: cell-based, human
Description: After seeding cells for 24 hours, the test articles were added at the indicated concentrations and incubated for 2 hours. Cells were washed twice to remove compound completely. 20 μmol/L of bleomycin was added and incubated for 1 hour under air to induce DNA strand breaks following 2 h cell resting. After washing twice with PBS, comet assay was conducted using a single-cell electrophoresis system from Trevigen (Gaithersburg, MD). The data were analyzed using Comet Assay IV software from Perceptive Instruments (29).
To evaluate whether 3424 cross-linked DNA, a direct biochemical assay for DNA cross-linking, the single-cell electrophoresis-based comet assay was employed using H460 cells. In this assay, the racemic mixture, 2870, was used. […] Bleomycin was used to induce DNA strand breaks which was evident by increased tail moment to 35. 2870-induced DNA cross-linking was tested using three concentrations under identical conditions that were used for bleomycin. Compound 2870-induced concentration-dependent DNA-crosslinking was evident by a decreased tail moment from 36 to 1.6.

A498 xenograft = system: A498 xenograft
Description: (§2) Death and observed clinical signs were recorded on the basis of the numbers of animals within each subset.

H460 cells [4] = experiment: Cytotoxicity in H460 cells in the absence or presence of AKR1C3 inhibitor 3021; settings: Homo sapiens, NCI-H460, 2 h, read-out: IC50 (cytotoxicity)
Description: Exponentially growing cells were seeded 24 hours before the addition of test compounds. After addition of test compounds, the plates were incubated for the indicated hours at 37° C. in a standard tissue culture incubator. At the end of the experiment, the viable cells were detected using either a CellTiter Glo (CTG) assay kit or AlamarBlue^(28,29). […] For 3021 experiments, cells were pretreated with 3 μM of 3021 for 2 h prior to compound treatment under air. IC50 was calculated as described above.

recombinant human AKR1C3 = target: T1, recombinant human AKR1C3 (Homo sapiens, UniProt P42330); experiment: Kinetic analysis of AKR1C3 towards various substrates (NADPH absorbance 340 nm); assay type: biochemical; settings: substrate of AKR1C3, 25° C., triplicate
T1 construct: purchased Abcam (Cambridge, MA)
T1 sequence (P42330 1-323): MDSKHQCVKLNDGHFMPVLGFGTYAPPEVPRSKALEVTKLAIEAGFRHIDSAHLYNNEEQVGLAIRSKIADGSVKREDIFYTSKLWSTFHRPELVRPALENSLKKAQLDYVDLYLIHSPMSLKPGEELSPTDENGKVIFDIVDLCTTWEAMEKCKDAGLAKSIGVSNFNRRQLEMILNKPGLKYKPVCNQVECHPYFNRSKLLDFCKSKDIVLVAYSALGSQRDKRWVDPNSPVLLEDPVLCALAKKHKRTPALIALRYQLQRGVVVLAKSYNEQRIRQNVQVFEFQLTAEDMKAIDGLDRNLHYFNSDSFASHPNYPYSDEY
Description: The reaction was incubated at 25° C. and terminated at various time points by adding acetonitrile and methanol (at a ratio of 9 to 1) and subjected for LC-MS/MS analysis. For enzyme kinetic analysis, the activity was determined with a SpectraMax M2^e spectrophotometer (Molecular Devices, LLC, San Jose, CA) by measuring the decrease in absorbance of the NADPH at 340 nm (E=6270 M^−1 cm^−1). After the initiation of the reaction by addition of substrates, the reactions were monitored at 30 s intervals at 25° C. The non-substrate reaction rate was also monitored as background and its slope was used to determine the initial velocity of the reaction. The kinetic data reported were the average of triplicate measurements.

SNU-16 xenograft = settings: 5-FU 30 mg/kg IP twice a week
Description: as §2

CC(=O)O[C@H]1C(=O)[C@@]2(C)[C@H]([C@H](OC(=O)c3ccccc3)[C@]3(O)C[C@H](OC(=O)[C@H](O)[C@@H](NC(=O)c4ccccc4)c4ccccc4)C(C)=C1C3(C)C)[C@]1(OC(C)=O)CO[C@@H]1C[C@@H]2O [paclitaxel, reference compound]
TGI [1]: 64%

CNC(=O)c1cc(Oc2ccc(NC(=O)Nc3ccc(Cl)c(C(F)(F)F)c3)cc2)ccn1 [Sorafenib, reference compound]
tumor growth reduction (TGI) [2]: 52.1%

bleomycin [reference compound]
tail moment (H460 cells [3]; bleomycin used to induce DNA strand breaks (20 μmol/L, 1 hour)): 35

CCN(CC)CCNC(=O)c1c(C)[nH]c(/C=C2\C(=O)Nc3ccc(F)cc32)c1C [sunitinib, reference compound]
TGI (A498 xenograft; sunitinib 25 mg/kg daily oral gavage): 52%

CC(OP(=O)(N1CC1)N1CC1)c1ccc([N+](=O)[O-])c(Oc2cccc(C(=O)N(C)C)c2)c1 (racemic) [Compound 2870, 1-(3-(3-N,N-dimethylaminocarbonyl)phenoxyl-4-mtrophenyl)-1-ethyl-N,N′-bis(ethylene)phosphoramidate]
tail moment (H460 cells [3]; 2870 at three concentrations, 2 hours, then bleomycin, decreased from 36, concentration-dependent DNA cross-linking): 1.6
IC50 (H460 cells [4]): 4 nM

C[C@]12CCC(=O)C[C@@H]1CC[C@@H]1[C@@H]2CC[C@]2(C)[C@@H](O)CC[C@@H]12 [5^α-DHT, dihydrotestosterone, reference compound]
Kcat (recombinant human AKR1C3): 0.002 ± 0 s⁻¹
Km (recombinant human AKR1C3): 10.2 ± 0.62 µM

C[C@@H](OP(=O)(N1CC1)N1CC1)c1ccc([N+](=O)[O-])c(Oc2cccc(C(=O)N(C)C)c2)c1 [Compound 3423, (R)-1-(3-(3-N,N-dimethylaminocarbonyl)phenoxyl-4-mtrophenyl)-1-ethyl-N,N′-bis(ethylene)phosphoramidate]
Kcat (recombinant human AKR1C3): 0.012 ± 0.00067 s⁻¹
Km (recombinant human AKR1C3; read-out: Km): 12.9 ± 1.71 µM
IC50 (H460 cells [4]): 5 nM

O=c1[nH]cc(F)c(=O)[nH]1 [Compound 5-FU, 5-fluorouracil, reference compound]
anti-tumor activity (SNU-16 xenograft): no anti-tumor activity

C[C@]12CCC(=O)C=C1CC[C@@H]1[C@@H]2CC[C@]2(C)C(=O)CC[C@@H]12 [4-Androstenedione, 4-androstenedione, reference compound]
Kcat (recombinant human AKR1C3): 0.0012 ± 0.00017 s⁻¹
Km (recombinant human AKR1C3): 1.98 ± 0.43 µM

Nc1ccn([C@@H]2O[C@H](CO)[C@@H](O)C2(F)F)c(=O)n1 [gemcitabine, reference compound]
TGI (A498 xenograft; gemcitabine 80 mg/kg weekly IP for 4 doses): 19%
